Experimental data: patent publication US11091478B2 (Fochon Pharmaceuticals, Ltd., priority 2017, dated 2021)

What was measured:
DOHH2 cells = assay: Cell proliferation assay (MTS), DOHH2 cells, 120 h; type: cell-based; details: Homo sapiens, DOHH-2, 120 h
In short: (§1)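 Cells in RPMI-1640 with 10% FBS were seeded at 5000/well, left overnight at 37° C., 5% CO2, then exposed to compound at 10000 down to 1.5 nM (nine concentrations) for 72 h (RS4;11) or 120 h (DOHH2). Viability was read by MTS, 2 h, absorbance at 490/650 nm; IC50 calculated.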

RS4;11 cells = assay: Cell proliferation assay (MTS), RS4;11 cells, 72 h; type: cell-based; details: Homo sapiens, RS4-11, 72 h
In short: as §1

SMILES	IC50 (RS4;11 cells)	IC50 (DOHH2 cells)
CC1(C)CCC(CN2CCN(c3ccc(C(=O)NS(=O)(=O)c4cc5c(c([N+](=O)[O-])c4)N[C@@H](CN=S(C)(C)=O)CO5)c(Oc4cnc5[nH]ccc5c4)c3)CC2)=C(c2ccc(Cl)cc2)C1 [Example 2-75, (S)-2-((1H-pyrrolo[2,3-b]pyridin-5-yl)oxy)-4-(4-((4′-chloro-5,5-dimethyl-3,4,5,6-tetra-hydro-[1,1′-biphenyl]-2-yl)methyl)piperazin-1-yl)-N-((3-(((dimethyl(oxo)-λ^6-sulfanyl-idene)amino)methyl)-5-nitro-3,4-dihydro-2H-benzo[b][1,4]oxazin-7-yl)sulfonyl)benza-mide]	1 nM	64 nM
C[C@H]1CN(C[C@@H]2COc3cc(S(=O)(=O)NC(=O)c4ccc(N5CCN(CC6=C(c7ccc(Cl)cc7)CC(C)(C)CC6)CC5)cc4Oc4cnc5[nH]ccc5c4)cc([N+](=O)[O-])c3N2)CCO1 [Example 2-79, 2-((1H-pyrrolo[2,3-b]pyridin-5-yl)oxy)-4-(4-((4′-chloro-5,5-dimethyl-3,4,5,6-tetrahydro-[1,1′-biphenyl]-2-yl)methyl)piperazin-1-yl)-N-(((R)-3-(((S)-2-methylmorpholino)methyl)-5-nitro-3,4-dihydro-2H-benzo[b][1,4]oxazin-7-yl)sulfonyl)benzamide]	7 nM	55 nM
C[C@H]1COCCN1C[C@@H]1COc2cc(S(=O)(=O)NC(=O)c3ccc(N4CCN(CC5=C(c6ccc(Cl)cc6)CC(C)(C)CC5)CC4)cc3Oc3cnc4[nH]ccc4c3)cc([N+](=O)[O-])c2N1 [Example 2-80, 2-((1H-pyrrolo[2,3-b]pyridin-5-yl)oxy)-4-(4-((4′-chloro-5,5-dimethyl-3,4,5,6-tetrahydro-[1,1′-biphenyl]-2-yl)methyl)piperazin-1-yl)-N-(((R)-3-(((S)-3-methylmorpholino)meth-yl)-5-nitro-3,4-dihydro-2H-benzo[b][1,4]oxazin-7-yl)sulfonyl)benzamide]	7 nM	49 nM
C[C@@H]1COCCN1C[C@@H]1COc2cc(S(=O)(=O)NC(=O)c3ccc(N4CCN(CC5=C(c6ccc(Cl)cc6)CC(C)(C)CC5)CC4)cc3Oc3cnc4[nH]ccc4c3)cc([N+](=O)[O-])c2N1 [Example 2-81, 2-((1H-pyrrolo[2,3-b]pyridin-5-yl)oxy)-4-(4-((4′-chloro-5,5-dimethyl-3,4,5,6-tetra-hydro-[1,1′-biphenyl]-2-yl)methyl)piperazin-1-yl)-N-(((R)-3-(((R)-3-methylmorpholino)meth-yl)-5-nitro-3,4-dihydro-2H-benzo[b][1,4]oxazin-7-yl)sulfonyl)benzamide]	3 nM	14 nM
CC1(C)CCC(CN2CCN(c3ccc(C(=O)NS(=O)(=O)c4cc5c(c([N+](=O)[O-])c4)N[C@H](CN4C[C@@H]6C[C@H]4CO6)CO5)c(Oc4cnc5[nH]ccc5c4)c3)CC2)=C(c2ccc(Cl)cc2)C1 [Example 2-82, 2-((1H-pyrrolo[2,3-b]pyridin-5-yl)oxy)-N-(((R)-3-(((1S,4S)-2-oxa-5-azabicyclo[2.2.1]heptan-5-yl)methyl)-5-nitro-3,4-dihydro-2H-benzo[b][1,4]oxazin-7-yl)sulfonyl)-4-(4-((4′-chloro-5,5-dimethyl-3,4,5,6-tetrahydro-[1,1′-biphenyl]-2-yl)methyl)piperazin-1-yl) benzamide]	1 nM	9 nM
CC1(C)CCC(CN2CCN(c3ccc(C(=O)NS(=O)(=O)c4cc5c(c([N+](=O)[O-])c4)N[C@H](CN4C[C@H]6C[C@@H]4CO6)CO5)c(Oc4cnc5[nH]ccc5c4)c3)CC2)=C(c2ccc(Cl)cc2)C1 [Example 2-83, 2-((1H-pyrrolo[2,3-b]pyridin-5-yl)oxy)-N-(((R)-3-(((1R,4R)-2-oxa-5-azabicyclo[2.2.1]heptan-5-yl)methyl)-5-nitro-3,4-dihydro-2H-benzo[b][1,4]oxazin-7-yl)sulfonyl)-4-(4-((4′-chloro-5,5-dimethyl-3,4,5,6-tetrahydro-[1,1′-biphenyl]-2-yl)methyl)piperazin-1-yl) benzamide]	1 nM	13 nM
CC1(C)CCC(CN2CCN(c3ccc(C(=O)NS(=O)(=O)c4cc5c(c([N+](=O)[O-])c4)N[C@@H](CN4C[C@@H]6C[C@H]4CO6)CO5)c(Oc4cnc5[nH]ccc5c4)c3)CC2)=C(c2ccc(Cl)cc2)C1 [Example 2-87, 2-((1H-pyrrolo[2,3-b]pyridin-5-yl)oxy)-N-(((S)-3-(((1S,4S)-2-oxa-5-azabicyclo[2.2.1]heptan-5-yl)methyl)-5-nitro-3,4-dihydro-2H-benzo[b][1,4]oxazin-7-yl)sulfonyl)-4-(4-((4′-chloro-5,5-dimethyl-3,4,5,6-tetrahydro-[1,1′-biphenyl]-2-yl)methyl)piperazin-1-yl) benzamide]	7 nM	26 nM

Now from value to molecule, other results behind:

IC50 (RS4;11 cells)	SMILES	IC50 (DOHH2 cells)
58 nM	CC1(C)CCC(CN2CCN(c3ccc(C(=O)NS(=O)(=O)c4cc5c(c([N+](=O)[O-])c4)N[C@H](CN=S4(=O)CCCC4)CO5)c(Oc4cnc5[nH]ccc5c4)c3)CC2)=C(c2ccc(Cl)cc2)C1 [Example 2-71, (R)-2-((1H-pyrrolo[2,3-b]pyridin-5-yl)oxy)-4-(4-((4′-chloro-5,5-dimethyl-3,4,5,6-tetra-hydro-[1,1′-biphenyl]-2-yl)methyl)piperazin-1-yl)-N-((5-nitro-3-(((1-oxidotetrahydro-1λ^6-thiophen-1-ylidene)amino)methyl)-3,4-dihydro-2H-benzo[b][1,4]oxazin-7-yl)sulfo-nyl)benzamide]	43 nM
6 nM	CC1(C)CCC(CN2CCN(c3ccc(C(=O)NS(=O)(=O)c4cc5c(c([N+](=O)[O-])c4)N[C@H](CN=S4(=O)CCOCC4)CO5)c(Oc4cnc5[nH]ccc5c4)c3)CC2)=C(c2ccc(Cl)cc2)C1 [Example 2-72, (R)-2-((1H-pyrrolo[2,3-b]pyridin-5-yl)oxy)-4-(4-((4′-chloro-5,5-dimethyl-3,4,5,6-tetra-hydro-[1,1′-biphenyl]-2-yl)methyl)piperazin-1-yl)-N-((5-nitro-3-(((4-oxido-1,4λ^6-oxa-thian-4-ylidene)amino)methyl)-3,4-dihydro-2H-benzo[b][1,4]oxazin-7-yl)sulfonyl)ben-zamide]	24 nM
79 nM	CC1(C)CCC(CN2CCN(c3ccc(C(=O)NS(=O)(=O)c4cc5c(c([N+](=O)[O-])c4)N[C@H](CCN=S4(=O)CCCC4)CO5)c(Oc4cnc5[nH]ccc5c4)c3)CC2)=C(c2ccc(Cl)cc2)C1 [Example 2-73, (R)-2-((1H-pyrrolo[2,3-b]pyridin-5-yl)oxy)-4-(4-((4′-chloro-5,5-dimethyl-3,4,5,6-tetra-hydro-[1,1′-biphenyl]-2-yl)methyl)piperazin-1-yl)-N-((5-nitro-3-(2-((1-oxidotetrahydro-1λ^6-thiophen-1-ylidene)amino)ethyl)-3,4-dihydro-2H-benzo[b][1,4]oxazin-7-yl)sulfonyl)benzamide]	69 nM
64 nM	CC1(C)CCC(CN2CCN(c3ccc(C(=O)NS(=O)(=O)c4cc5c(c([N+](=O)[O-])c4)N[C@H](CCN=S4(=O)CCOCC4)CO5)c(Oc4cnc5[nH]ccc5c4)c3)CC2)=C(c2ccc(Cl)cc2)C1 [Example 2-74, (R)-2-((1H-pyrrolo[2,3-b]pyridin-5-yl)oxy)-4-(4-((4′-chloro-5,5-dimethyl-3,4,5,6-tetra-hydro-[1,1′-biphenyl]-2-yl)methyl)piperazin-1-yl)-N-((5-nitro-3-(2-((4-oxido-1,4λ^6-ox-athian-4-lidene)amino)ethyl)-3,4-dihydro-2H-benzo[b][1,4]oxazin-7-yl)sulfonyl)ben-zamide]	108 nM
50 nM	CC1(C)CCC(CN2CCN(c3ccc(C(=O)NS(=O)(=O)c4cc5c(c([N+](=O)[O-])c4)N[C@@H](CN=S4(=O)CCOCC4)CO5)c(Oc4cnc5[nH]ccc5c4)c3)CC2)=C(c2ccc(Cl)cc2)C1 [Example 2-77, (S)-2-((1H-pyrrolo[2,3-b]pyridin-5-yl)oxy)-4-(4-((4′-chloro-5,5-dimethyl-3,4,5,6-tetra-hydro-[1,1′-biphenyl]-2-yl)methyl)piperazin-1-yl)-N-((5-nitro-3-(((4-oxido-1,4λ^6-oxa-thian-4-ylidene)amino)methyl)-3,4-dihydro-2H-benzo[b][1,4]oxazin-7-yl)sulfonyl)ben-zamide]	602 nM
6 nM	CC1(C)CCC(CN2CCN(c3ccc(C(=O)NS(=O)(=O)c4cc5c(c([N+](=O)[O-])c4)N[C@@H](CCN=S4(=O)CCOCC4)CO5)c(Oc4cnc5[nH]ccc5c4)c3)CC2)=C(c2ccc(Cl)cc2)C1 [Example 2-78, (S)-2-((1H-pyrrolo[2,3-b]pyridin-5-yl)oxy)-4-(4-((4′-chloro-5,5-dimethyl-3,4,5,6-tetra-hydro-[1,1′-biphenyl]-2-yl)methyl)piperazin-1-yl)-N-((5-nitro-3-(2-((4-oxido-1,4λ^6-ox-athian-4-ylidene)amino)ethyl)-3,4-dihydro-2H-benzo[b][1,4]oxazin-7-yl)sulfonyl)ben-zamide]	15 nM
26 nM	CC1(C)CCC(CN2CCN(c3ccc(C(=O)NS(=O)(=O)c4cc5c(c([N+](=O)[O-])c4)N[C@H](CN4CCCCC4)CO5)c(Oc4cnc5[nH]ccc5c4)c3)CC2)=C(c2ccc(Cl)cc2)C1 [Example 2-84, (R)-2-((1H-pyrrolo[2,3-b]pyridin-5-yl)oxy)-4-(4-((4′-chloro-5,5-dimethyl-3,4,5,6-tetra-hydro-[1,1′-biphenyl]-2-yl)methyl)piperazin-1-yl)-N-((5-nitro-3-(piperidin-1-ylmethyl)-3,4-dihydro-2H-benzo[b][1,4]oxazin-7-yl)sulfonyl)benzamide]	82 nM
